# Assay results: patent US10799605B2 (3B PHARMACEUTICALS GMBH, priority 2014, dated 2020)
# Where two headings read alike, the source gives them in different places.
# Experiments:
# [1] = target: T1, NTR1 (Homo sapiens (Human), UniProt P30989); test: Functional Ca2+ mobilisation assay (example part II); format: cell-based; details: antagonist assay
# Text: (§1) Ca^2+ ions are usually kept at nanomolar levels in the cytosol of cells, and act in a number of signal transduction pathways as second messengers. […] Changes in calcium ion concentration in standard assay protocols can be readily detected with fluorescent dyes that emit light when changes in intracellular Ca2^+ ion concentration occur. Given the transient nature of these responses, they are often read with instrumentation that has ‘inject and read’ capability.
# (§2) HT29 or NTR1-expressing HEK293 cells were trypsinized and seeded into black flat clear-bottom 96-well plates (Corning, Amsterdam, The Netherlands) at 6×10^5 cells per well. After 24 h incubation at 37° C. and 5% CO2, cells were washed twice with wash buffer (130 mM NaCl, 5 mM KCl, 10 mM Hepes, 2 mM CaCl2, 10 mM Glucose, pH 7.4) and loaded with 100 μl of Ca5 dye (Molecular Devices, Biberach, Germany) for 1 h at 37° C. and 5% CO2. For agonist assays, serial dilutions of agonistic substances were added to the cells loaded with dye and the change of the fluorescent signal was recorded continually for approx. 90 s using a FlexStation II (Molecular Devices, Biberach, Germany). Addition of wash buffer served as a control. Thus, EC50 concentrations for each compound were computed and provided a measure for the potency of the substance. For antagonist assays, cells loaded with 100 μl of Ca5-dye were pre-incubated with serial dilutions of antagonistic substances for 30 min, before the EC80-concentration of agonist was added to the cells and the change of the fluorescent signal was recorded continually for approx. 90 s. Thus, IC50 concentrations were computed for each compound and provided a measure for the inhibitory activity of the compounds at the NTR1.
# [2] = target: T1, NTR1; test: Radioligand binding assay NTR1 (example part II); details: 0.05 nM 125I-(Tyr3-neurotensin), 60 min at 4° C.; read-out: IC50 [nM] RLB
# Method: (§3) In order to determine the binding affinity of compounds comprising a radiolabel for NTR1, a radioligand binding assay was carried out. A radioligand is a radioactive biochemical substance that is used for diagnosis or for research-oriented study of cellular receptor systems of the body. In […] systems it is often used to quantify the binding of a test molecule to the binding site of radioligand. The higher the affinity of the molecule, the more radioligand is displaced from the binding site. The amount of bound radioligand can be measured by scintillation counting and thereby quantified. This assay is commonly used to calculate binding constants of molecules to receptors.
# (§4) The NTR1 radioligand binding assay was performed by Cerep (Celle l'Evescault, France; Catalog reference 0109) according to Vita et al., FEBS Lett., 1993, 317, 139-142. NTR1 was prepared from CHO cells recombinantly expressing the human receptor and incubated with 0.05 nM ^125I-(Tyr^3-neurotensin) and serial dilutions of the test compounds. […] The result for each test compound is expressed as IC50 concentration and provides a measure for the affinity of the test compound for NTR1.
# [3] = target: T1, NTR1; test: Radioligand binding assay NTR1 (example part I)
# Method: as §3, §4
# [4] = target: T1, NTR1; test: Functional Ca2+ mobilisation assay (example part I); format: cell-based
# Text: as §1, with “Ca^2+” for “Ca2^+”
# as §2, with “conjugate” for “compound”, “conjugates” for “compounds”
# T1 sequence (P30989 whole entry): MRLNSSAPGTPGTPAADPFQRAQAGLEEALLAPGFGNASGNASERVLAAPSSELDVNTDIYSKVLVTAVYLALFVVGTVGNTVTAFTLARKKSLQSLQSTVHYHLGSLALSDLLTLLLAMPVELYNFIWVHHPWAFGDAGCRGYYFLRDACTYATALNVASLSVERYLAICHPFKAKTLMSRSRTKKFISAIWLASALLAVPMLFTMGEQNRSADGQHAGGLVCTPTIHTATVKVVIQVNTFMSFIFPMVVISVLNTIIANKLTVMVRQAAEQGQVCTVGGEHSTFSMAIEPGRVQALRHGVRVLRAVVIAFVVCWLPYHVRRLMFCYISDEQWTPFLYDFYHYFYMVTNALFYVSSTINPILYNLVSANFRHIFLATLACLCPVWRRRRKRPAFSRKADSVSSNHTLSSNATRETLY
Structure (SMILES),IC50 [3] [nM],EC50 [4] [nM],IC50 [4] [nM],other results
"COc1cccc(OC)c1-c1cc(C(=O)NC2(C(=O)O)C3CC4CC(C3)CC2C4)nn1-c1ccc(C(=O)N(C)CCCN(C)CCCN(C)C(=O)CCC(=O)NCCCOCCOCCOCCCNC(=O)CN2CCN(CC(=O)O)CCN(CC(=O)O)CCN(CC(=O)O)CC2)cc1C(C)C (stereo not drawn) [(IIIb), 2-{[1-(4-{[3-({3-[(DOTA-Ttds)-methyl-amino]-propyl}-methyl-amino)-propyl]-methyl-carbamoyl}-2-isopropyl-phenyl)-5-(2,6-dimethoxy-phenyl)-1H-pyrazole-3-carbonyl]-amino}-adamantane-2-carboxylic acid]",–,–,–,IC50 [1]: 16.6 nM; IC50 [2]: 5.2 nM
"COc1cccc(OC)c1-c1cc(C(=O)NC2(C(=O)O)C3CC4CC(C3)CC2C4)nn1-c1ccc(C(=O)N(C)CCCN(C)CCCN(C)C(=S)Nc2ccc(NC(=S)NCCCCCN(O)C(=O)CCC(=O)NCCCCCN(O)C(=O)CCC(=O)NCCCCCN(O)C(C)=O)cc2)cc1C(C)C (stereo not drawn) [(IIIf), 2-({5-(2,6-Dimethoxy-phenyl)-1-[2-isopropyl-4-(methyl-{3-[methyl-(3-{1-methyl-3-[4-(3-DFO-thioureido)-phenyl]-thioureido}-propyl)-amino]-propyl}-carbamoyl)-phenyl]-1H-pyrazole-3-carbonyl}-amino)-adamantane-2-carboxylic]",–,–,–,IC50 [1]: 17.5 nM; IC50 [2]: 3 nM
"COc1cccc(OC)c1-c1cc(C(=O)NC2(C(=O)O)C3CC4CC(C3)CC2C4)nn1-c1ccc(C(=O)N(C)CCCN(C)CCCN(C)C(=O)CCCC(=O)NCCCOCCOCCOCCCNC(=O)CCC(=O)NCCCOCCOCCOCCCNC(=O)CCC(=O)NCCCOCCOCCOCCCNC(=O)CCC(=O)N[C@@H](CCCCNC(=O)CN2CCN(CC(=O)O)CCN(CC(=O)O)CCN(CC(=O)O)CC2)C(=O)NCCCOCCOCCOCCCNC(=O)CCC(=O)NCCCOCCOCCOCCCNC(=O)CCC(=O)NCCCOCCOCCOCCCNC(=O)CCC(=O)NCCCC(=O)N[C@H](CCCNC(=N)N)C(=O)N[C@@H](CCCNC(=N)N)C(=O)N2CCC[C@H]2C(=O)N[C@@H](Cc2ccc(O)cc2)C(=O)N[C@H](C(=O)N[C@@H](CC(C)C)C(=O)O)C(C)(C)C)cc1C(C)C (stereo partly drawn) [(18), 1206-Glutar-Ttds3-Lys(DOTA)-Ttds3-GABA-arg-Arg-Pro-Tyr-Tle-Leu-OH]",2.7,> 50000,3.8,–
"COc1cccc(OC)c1-c1cc(C(=O)NC2(C(=O)O)C3CC4CC(C3)CC2C4)nn1-c1ccc(C(=O)N(C)CCCN(C)CCCN(C)C(=O)CCCC(=O)NCCCOCCOCCOCCCNC(=O)CCC(=O)N[C@@H](CCCCNC(=O)CN2CCN(CC(=O)O)CCN(CC(=O)O)CCN(CC(=O)O)CC2)C(=O)NCCCOCCOCCOCCCNC(=O)CCC(=O)NCCCC(=O)N[C@@H](CCCNC(=N)N)C(=O)N[C@@H](CCCNC(=N)N)C(=O)N2CCC[C@H]2C(=O)N[C@@H](Cc2ccc(O)cc2)C(=O)N[C@H](C(=O)N[C@@H](CC(C)C)C(=O)O)C(C)(C)C)cc1C(C)C (stereo partly drawn) [(16), 1206-Glutar-Ttds-Lys(DOTA)-Ttds-GABA-Arg-Arg-Pro-Tyr-Tle-Leu-OH]",0.14,4,3.8,shape of EC50 curve ([4]; agonist assay): bell-shaped EC50 curves
COc1cccc(OC)c1-c1cc(C(=O)NC2(C(=O)O)C3CC4CC(C3)CC2C4)nn1-c1ccc(C(=O)N(C)CCCN(C)CCCN(C)C(=O)CCCC(=O)NCCCOCCOCCOCCCNC(=O)CCC(=O)N[C@@H](CCCCNC(=O)CN2CCN(CC(=O)O)CCN(CC(=O)O)CCN(CC(=O)O)CC2)C(=O)NCCCOCCOCCOCCCNC(=O)CCC(=O)NCCCC(=O)N[C@@H](CC(N)=O)C(=O)N[C@@H](C)C(=O)N[C@H](C(=O)N2CCC[C@H]2C(=O)N[C@@H](CC(N)=O)C(=O)N[C@@H](CC(C)C)C(=O)N[C@@H](CCCNC(=N)N)C(=O)NCC(=O)N[C@@H](CC(=O)O)C(=O)N[C@@H](CC(C)C)C(=O)N[C@@H](CCC(N)=O)C(=O)N[C@H](C(=O)N[C@@H](CC(C)C)C(=O)N[C@@H](C)C(=O)N[C@@H](CCC(N)=O)C(=O)N[C@@H](CCCCN)C(=O)N[C@H](C(=O)N[C@@H](C)C(=O)N[C@@H](CCCNC(=N)N)C(=O)N[C@H](C(N)=O)[C@@H](C)O)C(C)C)C(C)C)C(C)C)cc1C(C)C (stereo partly drawn) [(21)],10,> 50000,18,–
"COc1cccc(OC)c1-c1cc(C(=O)NC2(C(=O)O)C3CC4CC(C3)CC2C4)nn1-c1ccc(C(=O)N(C)CCCN(C)CCCN(C)C(=O)CCCNC(=O)CCC(=O)NCCCOCCOCCOCCCNC(=O)[C@H](CCCCNC(=O)CN2CCN(CC(=O)O)CCN(CC(=O)O)CCN(CC(=O)O)CC2)NC(=O)CCC(=O)NCCCOCCOCCOCCCNC(=O)CCCC(=O)N(C)CCCN(C)CCCN(C)C(=O)c2ccc(-n3nc(C(=O)NC4(C(=O)O)C5CC6CC(C5)CC4C6)cc3-c3c(OC)cccc3OC)c(C(C)C)c2)cc1C(C)C (stereo partly drawn) [(12), 1206-Glutar-Ttds-Lys(DOTA)-Ttds-GABA-1206]",–,–,–,"IC50 ([3]; 0.05 nM 125I-(Tyr3-neurotensin), 60 min at 4° C., read-out: IC50): 2.5 nM; EC50 ([4]; agonist assay, * bell-shaped curves, EC50 from ascending part of the curve, read-out: Agonistic Effect EC50): > 50000 nM; IC50 ([4]; antagonist assay, 30 min pre-incubation, EC80-concentration of agonist, read-out: Antagonistic Effect IC50): 2.5 nM"
COc1cccc(OC)c1-c1cc(C(=O)NC2(C(=O)O)C3CC4CC(C3)CC2C4)nn1-c1ccc(C(=O)N(C)CCCN(C)CCCN(C)C(=O)CCCC(=O)NCCCC[C@H](NC(=O)CCC(=O)NCCCOCCOCCOCCCNC(=O)CCC(=O)NCCCOCCOCCOCCCNC(=O)CCC(=O)NCCCOCCOCCOCCCNC(=O)[C@H](CCCCNC(=O)CN2CCN(CC(=O)O)CCN(CC(=O)O)CCN(CC(=O)O)CC2)NC(=O)CCC(=O)NCCCOCCOCCOCCCNC(=O)CCC(=O)NCCCOCCOCCOCCCNC(=O)CCC(=O)NCCCOCCOCCOCCCNC(=O)CCCNC(=O)[C@@H](NC(=O)[C@H](CCCNC(=N)N)NC(=O)[C@H](C)NC(=O)[C@@H](NC(=O)[C@H](CCCCN)NC(=O)[C@H](CCC(N)=O)NC(=O)[C@H](C)NC(=O)[C@H](CC(C)C)NC(=O)[C@@H](NC(=O)[C@H](CCC(N)=O)NC(=O)[C@H](CC(C)C)NC(=O)[C@H](CC(=O)O)NC(=O)CNC(=O)[C@H](CCCNC(=N)N)NC(=O)[C@H](CC(C)C)NC(=O)[C@H](CC(N)=O)NC(=O)[C@@H]2CCCN2C(=O)[C@@H](NC(=O)[C@H](C)NC(=O)[C@H](CC(N)=O)NC(C)=O)C(C)C)C(C)C)C(C)C)[C@@H](C)O)C(N)=O)cc1C(C)C (stereo partly drawn) [(22)],9.1,> 50000,21,–
"COc1cccc(OC)c1-c1cc(C(=O)NC2(C(=O)O)C3CC4CC(C3)CC2C4)nn1-c1ccc(C(=O)N(C)CCCN(C)CCCN(C)C(=O)CCCC(=O)NCCCOCCOCCOCCCNC(=O)CCC(=O)N[C@@H](CCCCNC(=O)CN2CCN(CC(=O)O)CCN(CC(=O)O)CCN(CC(=O)O)CC2)C(=O)NCCCOCCOCCOCCCNC(=O)CCC(=O)NCCCC(=O)N[C@H](CCCNC(=N)N)C(=O)N[C@@H](CCCNC(=N)N)C(=O)N2CCC[C@H]2C(=O)N[C@@H](Cc2ccc(O)cc2)C(=O)N[C@H](C(=O)N[C@@H](CC(C)C)C(=O)O)C(C)(C)C)cc1C(C)C (stereo partly drawn) [(17), 1206-Glutar-Ttds-Lys(DOTA)-Ttds-GABA-arg-Arg-Pro-Tyr-Tle-Leu-OH]",0.32,7,3.4,shape of EC50 curve ([4]; agonist assay): bell-shaped EC50 curves
